Source: ChEMBL document CHEMBL1159348, “S(R)-podolactone D, a new sulfoxide-containing norditerpene dilactone from Podocarpus macrophyllus var. maki” (J Nat Prod, 2003)
In brackets after ≈: the same amount, converted by molar mass.

System: P388
Assay: Cytotoxicity against mouse P388 cells
Type: functional, cell-based

Compound | IC50 [µg/mL]
C[S@+]([O-])C[C@](C)(O)[C@H]1OC(=O)C=C2[C@@]13O[C@@H]3[C@H]1OC(=O)[C@@]3(C)C=CC[C@@]2(C)[C@@H]13 (stereo in doubt; 1) | 0.52 (≈ 1.27 µM)
C[S@+]([O-])C[C@](C)(O)[C@H]1OC(=O)C=C2[C@@]13O[C@@H]3[C@H]1OC(=O)[C@@]3(C)C=CC[C@@]2(C)[C@@H]13 (stereo in doubt; 2) | 0.23 (≈ 0.563 µM)
